Data taken from patent US20240132480A1, “INHIBITORS OF MYCOBACTERIUM TUBERCULOSIS LIPOAMIDE DEHYDROGENASE” (Cornell University, priority 2021, published 2024).
Where two headings read alike, the source gives them in different places.

Experiments:
[1] = Microsomal clearance (hLM); conditions: human liver microsomes
Mtb Lpd = Mtb Lpd (Mycobacterium tuberculosis (strain ATCC 25618 / H37Rv), UniProt P9WHH9); assay type: biochemical
[2] = microsomes
[3] = 30 min preincubation, read-out: LPD IC50 (μM) w/ 30 min preincubation

With `COc1ccc(NC(=O)CN(C)S(=O)(=O)c2cc(C)cc3cn[nH]c23)cc1Cl` [Example 1, N-(3-chloro-4-methoxyphenyl)-2-((N,5-dimethyl-1H-indazole)-7-sulfonamido)acetamide] as the molecule, how does the “Human Liver Microsome Stability” value [1] read?
Its value is greater than 768 µL/min/mg.

With `COc1ccc(NC(=O)[C@@H]2CCCN2S(=O)(=O)c2cc(C)cc3cn[nH]c23)cc1Cl` [Example 4, (S)—N-(3-chloro-4-methoxyphenyl)-1-((5-methyl-1H-indazol-7-yl)sulfonyl)pyrrolidine-2-carboxamide] as the molecule, how does the “Human Liver Microsome Stability” value [1] read?
Its value is 324 µL/min/mg.

What about the IC50 (Mtb Lpd; read-out: LPD IC50) of the same molecule?
Its IC50 is 0.39 µM.

What does the source list for `Cc1cc(S(=O)(=O)N2CCC[C@H]2C(=O)Nc2ccc(N3CCOCC3)c(Cl)c2)c2[nH]ncc2c1` [Example 5]?
Human Liver Microsome Stability [1]: 133 µL/min/mg; IC50 (Mtb Lpd; read-out: LPD IC50): 0.042 µM

Which results are given for `Cc1cc(S(=O)(=O)N2CC[C@H]2C(=O)Nc2ccc3c(c2)N(C2COC2)CCO3)c2[nH]c(C#N)cc2c1` [Example 209]?
IC50 (Mtb Lpd; [3]): 0.033 µM; Human Liver Microsome Stability [2]: 212 µL/min/mg

For `COc1ccc(NC(=O)CN(C)S(=O)(=O)c2cc(C)cc3cc(C#N)[nH]c23)cc1Cl` [Example 211, N-(3-chloro-4-methoxyphenyl)-2-((2-cyano-N,5-dimethyl-1H-indole)-7-sulfonamido)acetamide], which IC50 (Mtb Lpd; [3]) is on record?
The IC50 was 0.02 µM.

What about the “Human Liver Microsome Stability” value [2] of the same molecule?
Its value is 358 µL/min/mg.

Which IC50 (Mtb Lpd; [3]) does the source give for `CCc1ccc(NC(=O)CN(C)S(=O)(=O)c2cc(C)cc3cc(C#N)[nH]c23)cc1Cl` [Example 212] here?
Its IC50 is 0.035 µM.

And the “Human Liver Microsome Stability” value [2]?
The value was 210 µL/min/mg.

For `COc1cc(NC(=O)CN(C)S(=O)(=O)c2cc(C)cc3cc(C#N)[nH]c23)ccn1` [Example 214, 2-((2-cyano-N,5-dimethyl-1H-indole)-7-sulfonamido)-N-(2-methoxypyridin-4-yl)acetamide], which IC50 (Mtb Lpd; [3]) is on record?
The IC50 was 0.021 µM.

What about the “Human Liver Microsome Stability” value [2] of the same molecule?
Its value is 91 µL/min/mg.

For `Cc1cc(S(=O)(=O)N(C)CC(=O)Nc2ccc(C3CC3)c(Cl)c2)c2[nH]c(C#N)cc2c1` [Example 215], which IC50 (Mtb Lpd; [3]) is on record?
Its IC50 is 0.036 µM.

And the “Human Liver Microsome Stability” value [2]?
Its value is 203 µL/min/mg.

What does the source list for `COc1ccc(NC(=O)CN(C)S(=O)(=O)c2cc(C)cc3cc(C#N)[nH]c23)cn1` [Example 216, 2-((2-cyano-N,5-dimethyl-1H-indole)-7-sulfonamido)-N-(6-methoxypyridin-3-yl)acetamide]?
IC50 (Mtb Lpd; [3]): 0.02 µM; Human Liver Microsome Stability [2]: 49 µL/min/mg

With `CC(=O)Nc1cccc(NC(=O)CN(C)S(=O)(=O)c2cc(C)cc3cc(C#N)[nH]c23)c1` [Example 217] as the molecule, how does the IC50 (Mtb Lpd; [3]) read?
The IC50 was 0.028 µM.

And the “Human Liver Microsome Stability” value [2]?
The value was 177 µL/min/mg.

With `Cc1cc(S(=O)(=O)N(C)CC(=O)NCC#Cc2ccccc2)c2[nH]c(C#N)cc2c1` [Example 218] as the molecule, how does the IC50 (Mtb Lpd; [3]) read?
Its IC50 is 0.03 µM.

And the “Human Liver Microsome Stability” value [2]?
The value was 191 µL/min/mg.

Which IC50 (Mtb Lpd; [3]) does the source give for `Cc1cc(S(=O)(=O)N(C)CC(=O)Nc2cccc(N3CCCCC3=O)c2)c2[nH]c(C#N)cc2c1` [Example 219] here?
Its IC50 is 0.03 µM.

And the “Human Liver Microsome Stability” value [2]?
Its value is 150 µL/min/mg.

Which IC50 (Mtb Lpd; [3]) does the source give for `CCCCNC(=O)CN(C)S(=O)(=O)c1cc(C)cc2cc(C#N)[nH]c12` [Example 223] here?
Its IC50 is 0.028 µM.

And the “Human Liver Microsome Stability” value [2]?
The value was 62 µL/min/mg.

Which results are given for `Cc1cc(S(=O)(=O)N(C)CC(=O)Nc2cc(=O)n3c(n2)CCCC3)c2[nH]c(C#N)cc2c1` [Example 224, 2-((2-cyano-N,5-dimethyl-1H-indole)-7-sulfonamido)-N-(4-oxo-6,7,8,9-tetrahydro-4H-pyrido[1,2-a]pyrimidin-2-yl)acetamide]?
IC50 (Mtb Lpd; [3]): 0.022 µM; Human Liver Microsome Stability [2]: 61 µL/min/mg

What does the source list for `CN(CC(=O)Nc1ccn(C)c(=O)c1)S(=O)(=O)c1cc(Cl)cc2cc(C#N)[nH]c12` [Example 225]?
IC50 (Mtb Lpd; [3]): 0.035 µM; Human Liver Microsome Stability [2]: 11 µL/min/mg

Which results are given for `CC#CC(C)(C)NC(=O)CN(C)S(=O)(=O)c1cc(C)cc2cc(C#N)[nH]c12` [Example 229]?
IC50 (Mtb Lpd; [3]): 0.031 µM; Human Liver Microsome Stability [2]: 160 µL/min/mg
